In patent US10640450B1, “Hydroxytyrosol dihydrocaffeate having antioxidant activity and a method for preparing the same” (SHAANXI UNIVERSITY OF SCIENCE AND TECHNOLOGY, priority 2019, dated 2020):

Experiment: DPPH radical scavenging activity assay
Type: biochemical
Details: for DPPH Clearance rate: 30 min dark, room temperature, 517 nm, n = 3
Source text: 2,2-Diphenyl-1-picryl hydrazyl (DPPH) is an organic compound composed of a stable organic radical. In the DPPH molecule, due to the presence of multiple electron-withdrawing —NO2 and large π bonds of the benzene ring, nitrogen free radical is stabilized. Its methanol solution is purple and has a maximum absorption peak at 517 nm. After the addition of an antioxidant, DPPH captures an electron to be paired with the free electron, and the purple fades and turns into a yellow substance. The absorption at 517 nm disappears, and the degree of fading is quantitatively related to the number of electrons it captures. Based on this principle, a spectrophotometer is used to detect the change of the absorbance of the DPPH radical and the sample solution, and the ability of the sample to provide hydrogen atoms and scavenge free radicals can be measured.
(a) Preparation of DPPH solution: measuring exact amount of 2,2-diphenyl-1-picryl hydrazyl (DPPH) and dissolving in toluene to prepare a 0.2 mmoL/L DPPH solution, stored at 0° C. in dark.
(b) Preparation of test solution: Vc (vitamin C, positive control), hydroxytyrosol dihydrocaffeate (sample), hydroxytyrosol (control) and dihydrocaffeic acid (control). The sample solution was subjected to gradient dilution with toluene, and three sets of controls were separately dissolved in a test tube with a certain amount of toluene to prepare the same concentration gradient as the sample.
Sample liquid absorbance measurement: Taking 2 mL of test solution (Table 1: Vc, A, B, C), adding 2 mL of DPPH solution with concentration of […], mixing and reacting in the dark at room temperature for 30 min, adjusting to zero with toluene, and measuring at 517 nm. The absorbance A, was simultaneously measured for the absorbance of 2 mL of toluene mixed with 2 mL of the solution and the absorbance A0 of 2 mL of DPPH solution mixed with 2 mL of toluene (The experimental results are shown in Table 2).
Clearance rate (%)=[1−(Ai−Aj)/A0]*100% Clearance calculation: […]

Structure (SMILES)	antioxidant activity (in words)	DPPH Clearance rate (1.76 ppm in toluene) [%]	DPPH Clearance rate (8.80 ppm in toluene) [%]	DPPH Clearance rate (21.12 ppm in toluene) [%]	DPPH Clearance rate (42.24 ppm in toluene) [%]	DPPH Clearance rate (79.20 ppm in toluene) [%]	DPPH Clearance rate (112.64 ppm in toluene) [%]	DPPH Clearance rate (281.60 ppm in toluene) [%]	DPPH Clearance rate (492.80 ppm in toluene) [%]	DPPH Clearance rate (792.00 ppm in toluene) [%]	DPPH Clearance rate (915.20 ppm in toluene) [%]	scavenging ability to DPPH radical compared with controls (compared with hydroxytyrosol (B) and dihydrocaffeic acid (C) alone)	highest scavenging rate of DPPH radical (in the determined concentration range (1.76-915.20 ppm)) [%]
O=C(CCc1ccc(O)c(O)c1)OCCc1ccc(O)c(O)c1 [A, 3,4-dihydroxyphenethyl 3-(3,4-dihydroxyphenyl)propanoate]	excellent antioxidant activity	13.45	17.80	34.16	42.74	70.42	80.63	82.35	85.70	89.10	91.22	much higher than those of hydroxytyrosol (B) control group and dihydrocaffeic acid (C) control groups	91.22
O=C(O)CCc1ccc(O)c(O)c1 [C, Dihydrocaffeic acid]		6.27	7.46	13.42	19.21	32.36	37.87	53.23	59.82	69.01	70.28		
O=C1O[C@H]([C@@H](O)CO)C(O)=C1O [Vc, Vitamin C]		23.16	33.47	79.63	89.55	97.42	97.53	98.29	99.06	99.10	99.28		
